These results are taken from ChEMBL document CHEMBL1128314, “Absolute configuration of (+)-[fluoro(hydroxyphenylphosphinyl)methyl]-phosphonic acid, a specific inhibitor of Na(+)-gradient-dependent Na(+)-phosphate cotransport across renal brush border membrane, by X-ray crystallographic analysis of its (-)-quinine salt” (J Med Chem, 1995).

The term Ki denotes the dissociation constant of the complex between target and ligand, obtained from inhibition or displacement.

The species named for the assay is Rattus norvegicus. Nature of the assay: The compound was tested for inhibition of Sodium-Phosphate co-transport in rat renal Brush border membrane. The format is functional.

`O=P(O)(O)C(F)P(=O)(O)c1ccccc1` (stereo unspecified) registered an inhibition constant (Ki) of 360 µM.
